Values of other authors in US7317103B2, “Imaging agents for diagnosis of Parkinson's disease” (Molecular Insight Pharmaceuticals, Inc., priority 2000, dated 2008).

Conditions: Tc-99m labeled tropane analog, Kung et al

CN1[C@H]2CC[C@@H]1[C@@H](CN(CC[S-])CC[N-]CC[S-])[C@@H](c1ccc(Cl)cc1)C2.[O]=[99Tc+4] [TRODAT]
absolute brain uptake: very low
